Common to all, as to format: functional
Test [1] has as its system Mycobacterium tuberculosis. In words: Antimycobacterial activity against multidrug-resistant Mycobacterium tuberculosis 7357/1998 after 14 days by micromethod. Conditions: 7357/1998, 336 h.
Test [2] deals with Mycobacterium tuberculosis. In words: Antimycobacterial activity against multidrug-resistant Mycobacterium tuberculosis Praha 131 after 14 days by micromethod. Conditions: Praha 131, 336 h.
Test [3] deals with Mycobacterium tuberculosis. In words: Antimycobacterial activity against multidrug-resistant Mycobacterium tuberculosis 8666/2010 after 14 days by micromethod. Conditions: 8666/2010, 336 h.
For test [4], the system named is Mycobacterium tuberculosis. In words: Antimycobacterial activity against multidrug-resistant Mycobacterium tuberculosis Praha 4 after 14 days by micromethod. Conditions: Praha 4, 336 h.
The test system of test [5] is Mycobacterium tuberculosis. The test is described as follows: Antimycobacterial activity against multidrug-resistant Mycobacterium tuberculosis 9449/2007 after 14 days by micromethod. Conditions: 9449/2007, 336 h.
In test [6] the test system is Mycobacterium tuberculosis. The test is described as follows: Antimycobacterial activity against multidrug-resistant Mycobacterium tuberculosis 234/2005 after 14 days by micromethod. Conditions: 234/2005, 336 h.
For test [7], the system named is Mycobacterium tuberculosis. The test is described as follows: Antimycobacterial activity against multidrug-resistant Mycobacterium tuberculosis Praha 1 after 14 days by micromethod. Conditions: Praha 1, 336 h.
Test [8] has as its system Mycobacterium tuberculosis. In words: Antimycobacterial activity against multidrug-resistant Mycobacterium tuberculosis Praha 1 after 21 days by micromethod. Conditions: Praha 1, 504 h.
In test [9] the test system is Mycobacterium tuberculosis. In words: Antimycobacterial activity against multidrug-resistant Mycobacterium tuberculosis 234/2005 after 21 days by micromethod. Conditions: 234/2005, 504 h.
The subject of test [10] is Mycobacterium tuberculosis. In words: Antimycobacterial activity against multidrug-resistant Mycobacterium tuberculosis 9449/2007 after 21 days by micromethod. Conditions: 9449/2007, 504 h.
Test [11] deals with Mycobacterium tuberculosis. The test is described as follows: Antimycobacterial activity against multidrug-resistant Mycobacterium tuberculosis 8666/2010 after 21 days by micromethod. Conditions: 8666/2010, 504 h.
Test [12] concerns Mycobacterium tuberculosis. The test is described as follows: Antimycobacterial activity against multidrug-resistant Mycobacterium tuberculosis Praha 4 after 21 days by micromethod. Conditions: Praha 4, 504 h.
Test [13] has as its system Mycobacterium tuberculosis. The test is described as follows: Antimycobacterial activity against multidrug-resistant Mycobacterium tuberculosis Praha 131 after 21 days by micromethod. Conditions: Praha 131, 504 h.
The subject of test [14] is Mycobacterium tuberculosis. The test is described as follows: Antimycobacterial activity against multidrug-resistant Mycobacterium tuberculosis 7357/1998 after 21 days by micromethod. Conditions: 7357/1998, 504 h.

Values after ≈ are worked out from the molar mass of the structure shown.

On to `CC(C)/N=c1\cc2n(-c3ccc(Cl)cc3)c3ccccc3nc-2cc1Nc1ccc(Cl)cc1` [CLOFAZIMINE], for which the MIC was 0.125 µM (≈ 0.0592 µg/mL) in test [1]; 0.25 µM (≈ 0.118 µg/mL) in [2]; 2 µM (≈ 0.947 µg/mL) in test [3]; 0.5 µM (≈ 0.237 µg/mL) in [4]; 0.125 µM (≈ 0.0592 µg/mL) in test [5]; 0.125 µM (≈ 0.0592 µg/mL) in test [6]. This molecule also yielded an MIC in test [7] of 0.5 µM (≈ 0.237 µg/mL).
`O=[N+]([O-])c1cc(-c2nnc(SCc3ccc(Cl)c(Cl)c3)o2)cc([N+](=O)[O-])c1`: the MIC in test [1], in test [8], in [9], in test [2], in test [10] and in test [11] was 0.03 µM (≈ 0.0128 µg/mL) each time. The minimum inhibitory concentration (MIC) in test [3], in test [12], in test [4], in test [5], in [6] and in test [13] was 0.03 µM (≈ 0.0128 µg/mL) each time. Moreover, the MIC in [7] and in [14] was 0.03 µM (≈ 0.0128 µg/mL) throughout.
`O=[N+]([O-])c1cc(-c2nnc(SCc3ccc(Cl)c(Cl)c3)o2)cc(C(F)(F)F)c1`: the MIC in test [1], in test [8], in [9], in [2], in [10] and in test [11] was 0.5 µM (≈ 0.225 µg/mL) each time. Also, the MIC in test [3] came out at 0.5 µM (≈ 0.225 µg/mL); in [12], 0.5 µM (≈ 0.225 µg/mL); in [4] it was 0.25 µM (≈ 0.113 µg/mL); in test [5], 0.5 µM (≈ 0.225 µg/mL); in [6], 0.5 µM (≈ 0.225 µg/mL); in test [13] it was 0.5 µM (≈ 0.225 µg/mL). Besides, the MIC in test [7] and in test [14] was 0.5 µM (≈ 0.225 µg/mL) in each case.
`O=[N+]([O-])c1cc(-c2nnc(SCc3ccccc3Cl)o2)cc([N+](=O)[O-])c1`: the MIC was determined as 0.06 µM (≈ 0.0236 µg/mL) in test [1]; 0.125 µM (≈ 0.0491 µg/mL) in [8]; 0.125 µM (≈ 0.0491 µg/mL) in test [9]; 0.06 µM (≈ 0.0236 µg/mL) in test [2]; 0.125 µM (≈ 0.0491 µg/mL) in test [10]; 0.125 µM (≈ 0.0491 µg/mL) in [11]. Also, the MIC in test [3] turned out to be 0.06 µM (≈ 0.0236 µg/mL); in [12], 0.06 µM (≈ 0.0236 µg/mL); in test [4] it was 0.03 µM (≈ 0.0118 µg/mL); in test [5], 0.06 µM (≈ 0.0236 µg/mL); in test [6], 0.06 µM (≈ 0.0236 µg/mL); in [13], 0.125 µM (≈ 0.0491 µg/mL). Further, the minimal inhibitory concentration (MIC) came out at 0.06 µM (≈ 0.0236 µg/mL) in [7] and 0.125 µM (≈ 0.0491 µg/mL) in [14].
As for `O=[N+]([O-])c1cc(-c2nnc(SCc3ccc(Cl)cc3)o2)cc([N+](=O)[O-])c1`, the MIC in test [1] came to 0.03 µM (≈ 0.0118 µg/mL); in test [8], 0.06 µM (≈ 0.0236 µg/mL); in test [9], 0.06 µM (≈ 0.0236 µg/mL); in test [2], 0.03 µM (≈ 0.0118 µg/mL); in test [10], 0.06 µM (≈ 0.0236 µg/mL); in [11] it was 0.06 µM (≈ 0.0236 µg/mL). For the same molecule, the MIC was found to be 0.03 µM (≈ 0.0118 µg/mL) in test [3]; 0.06 µM (≈ 0.0236 µg/mL) in test [12]; 0.03 µM (≈ 0.0118 µg/mL) in [4]; 0.03 µM (≈ 0.0118 µg/mL) in test [5]; 0.03 µM (≈ 0.0118 µg/mL) in test [6]; 0.06 µM (≈ 0.0236 µg/mL) in test [13]. For the same molecule, the figures for the MIC in test [7] and in [14] were 0.03 µM (≈ 0.0118 µg/mL) and 0.06 µM (≈ 0.0236 µg/mL), respectively.
In the case of `NNC(=O)c1ccncc1` [ISONIAZID], the MIC in test [1] came to 16 µM (≈ 2.19 µg/mL); in test [2], 16 µM (≈ 2.19 µg/mL); in test [3], 32 µM (≈ 4.39 µg/mL); in test [4], 16 µM (≈ 2.19 µg/mL); in test [5], 64 µM (≈ 8.78 µg/mL); in test [6], 16 µM (≈ 2.19 µg/mL). This molecule also yielded an MIC in test [7] of 16 µM (≈ 2.19 µg/mL).
As for `O=[N+]([O-])c1cc(-n2nnnc2SCc2ccc(Cl)cc2)cc([N+](=O)[O-])c1`, the MIC in test [1], in [8], in [9], in test [2], in test [10] and in test [11] was 0.5 µM (≈ 0.196 µg/mL) each time. Also, the MIC in test [3], in test [12], in test [4], in test [5], in test [6] and in test [13] was 0.5 µM (≈ 0.196 µg/mL) throughout. Besides, the MIC in [7] and in test [14] was 0.5 µM (≈ 0.196 µg/mL) in each case.
Take `O=[N+]([O-])c1cc(-c2nnc(SCc3cccc(Cl)c3)o2)cc([N+](=O)[O-])c1`: the MIC in test [1] was determined as 0.03 µM (≈ 0.0118 µg/mL); in test [8], 0.06 µM (≈ 0.0236 µg/mL); in test [9], 0.06 µM (≈ 0.0236 µg/mL); in test [2] it was 0.03 µM (≈ 0.0118 µg/mL); in test [10] it was 0.06 µM (≈ 0.0236 µg/mL); in test [11], 0.06 µM (≈ 0.0236 µg/mL). The MIC in [3] worked out at 0.03 µM (≈ 0.0118 µg/mL); in test [12], 0.06 µM (≈ 0.0236 µg/mL); in test [4] it was 0.03 µM (≈ 0.0118 µg/mL); in test [5], 0.03 µM (≈ 0.0118 µg/mL); in test [6], 0.03 µM (≈ 0.0118 µg/mL); in test [13], 0.06 µM (≈ 0.0236 µg/mL). Also, the MIC in [7] came to 0.03 µM (≈ 0.0118 µg/mL); in test [14] it was 0.06 µM (≈ 0.0236 µg/mL).
With `CC1COc2c(N3CCN(C)CC3)c(F)cc3c(=O)c(C(=O)O)cn1c23` (stereo not given) [OFLOXACIN], the minimal inhibitory concentration (MIC) in test [1] is 8 µM (≈ 2.89 µg/mL); in [2] it was 16 µM (≈ 5.78 µg/mL); in test [3] it was 8 µM (≈ 2.89 µg/mL); in [4], greater than 16 µM; in [5], 2 µM (≈ 0.723 µg/mL); in [6] it was 0.5 µM (≈ 0.181 µg/mL). The same molecule registered an MIC in test [7] of 1 µM (≈ 0.361 µg/mL).

The record behind these values is ChEMBL document CHEMBL4002566, “S-substituted 3,5-dinitrophenyl 1,3,4-oxadiazole-2-thiols and tetrazole-5-thiols as highly efficient antitubercular agents” (Eur J Med Chem, 2017).
